From the supplement of paper PMC10307832

Columns and labels:
Assay in all cases: relative viability (nuclei count vs DMSO), 5 days (fraction); higher = more cells survive
[1] = compound: CC(C)(C)c1cc(NC(=O)Nc2ccc(-c3cn4c(n3)sc3cc(OCCN5CCOCC5)ccc34)cc2)no1 [Quizartinib] + Nc1nc2[nH]cc(CCc3ccc(C(=O)N[C@@H](CCC(=O)O)C(=O)O)cc3)c2c(=O)[nH]1 [Pemetrexed] (partner 0.2 µM)
In short: (§1)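 Lung cancer cell lines were pin-tool dosed in 1536-well plates on the day after seeding, with either a lone drug or a fixed anchor-drug dose plus five library-drug doses (not always all listed) in √10 steps. Nuclei were counted on 4× images after 5 days. Relative viability is the ratio of treated-well to vehicle-well nuclei counts, with each value a median of duplicate plates.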

[2] = compound: COCC[n+]1c2c(n(Cc3cnccn3)c1C)C(=O)c1ccccc1C2=O [YM155] + O=C(CCCCCCC(=O)Nc1ccccc1)NO [Vorinostat] (partner 1 µM)
In short: as §1

[3] = compound: COCC[n+]1c2c(n(Cc3cnccn3)c1C)C(=O)c1ccccc1C2=O [YM155] + CS(=O)(=O)N1CCN(Cc2cc3nc(-c4cccc5[nH]ncc45)nc(N4CCOCC4)c3s2)CC1 [Pictilisib] (partner 1 µM)
In short: as §1

[4] = compound: CC(C)(C)c1cc(NC(=O)Nc2ccc(-c3cn4c(n3)sc3cc(OCCN5CCOCC5)ccc34)cc2)no1 [Quizartinib] + O=C(c1cc(Cc2n[nH]c(=O)c3ccccc23)ccc1F)N1CCN(C(=O)C2CC2)CC1 [Olaparib] (partner 8 µM)
In short: as §1

Cell Line	relative viability ([1]; first compound 0.001 µM)	relative viability ([1]; first compound 0.003162 µM)	relative viability ([1]; first compound 0.01 µM)	relative viability ([1]; first compound 0.03162 µM)	relative viability ([1]; first compound 0.1 µM)	relative viability ([2]; first compound 0.002 µM)	relative viability ([2]; first compound 0.006325 µM)	relative viability ([2]; first compound 0.02 µM)	relative viability ([2]; first compound 0.06325 µM)	relative viability ([3]; first compound 0.002 µM)	relative viability ([3]; first compound 0.006325 µM)	relative viability ([3]; first compound 0.02 µM)	relative viability ([3]; first compound 0.06325 µM)	relative viability ([4]; first compound 0.001 µM)	relative viability ([4]; first compound 0.003162 µM)	relative viability ([4]; first compound 0.01 µM)	relative viability ([4]; first compound 0.03162 µM)	relative viability ([4]; first compound 0.1 µM)
NCI-H2087	0.66	0.536	0.71	0.661	0.651	0.667	0.759	0.55	0.44	0.868	0.762	0.931	0.642	0.654	0.578	0.619	0.587	0.583
HCC-15	0.223	0.21	0.248	0.216	0.224	0.851	0.836	0.872	0.881	0.612	0.687	0.723	0.614	0.684	0.685	0.676	0.641	0.69
NCI-H1915	0.49	0.47	0.552	0.477	0.488	0.516	0.519	0.525	0.533	0.904	0.834	0.88	0.667	0.257	0.263	0.287	0.261	0.253
NCI-H1666	0.772	0.822	0.85	0.827	0.914	0.923	1.11	1.03	1.03	0.455	–	0.404	0.484	0.704	0.713	0.662	0.678	0.853
NCI-H1651	0.524	0.594	0.665	0.596	0.59	0.569	0.538	0.586	0.605	0.542	0.589	0.556	0.473	0.163	0.174	0.192	0.186	0.177
NCI-H2347	0.426	0.382	0.45	0.443	0.456	0.506	0.488	0.521	0.476	0.574	1.03	0.829	0.633	0.458	0.518	0.701	0.57	0.608
NCI-H1944	0.55	0.575	0.601	0.654	0.583	0.596	0.511	0.599	0.629	0.358	0.339	0.363	0.379	0.442	0.374	0.396	0.425	0.385
HCC-366	0.148	0.148	0.129	0.165	0.178	0.321	0.393	0.469	0.279	0.376	0.124	0.125	0.134	0.324	0.369	0.332	0.328	0.389
NCI-H1734	0.375	0.412	0.407	0.457	0.412	0.826	0.799	0.891	0.84	0.414	0.454	0.491	0.533	0.587	0.557	0.625	0.605	0.642
201T	0.272	0.311	0.306	0.302	0.365	0.931	0.96	0.982	0.961	0.703	0.677	0.672	0.707	0.581	0.802	0.833	0.87	0.857
PC-3 [JPC-3]	0.845	1.12	0.852	1	1.17	0.746	0.889	0.855	0.74	0.651	0.792	0.801	0.759	1.15	1.1	1.21	1.05	1.12
HCC-827	0.237	0.249	–	0.24	0.276	0.875	0.961	0.835	0.835	1	0.763	1	1.09	0.653	0.556	–	0.616	0.697
LXF-289	0.789	0.827	1	0.83	0.867	0.739	0.789	0.73	0.756	0.772	0.771	0.752	0.549	0.901	0.987	1.16	1	0.992
NCI-H520	–	0.557	0.745	0.714	0.477	0.824	0.695	0.736	0.729	0.236	0.298	0.255	0.293	–	0.308	0.367	0.352	0.29
RERF-LC-KJ	0.458	0.493	0.48	0.457	0.492	0.694	0.794	0.654	0.759	0.527	0.51	0.55	0.593	0.931	0.807	0.938	0.545	0.972
NCI-H3122	0.185	0.201	0.193	0.2	0.211	0.828	0.746	1.05	0.976	0.601	0.615	0.606	0.506	0.573	0.637	0.653	0.69	0.676
HARA	0.257	0.266	0.266	0.222	0.304	0.578	0.462	0.547	0.606	0.371	0.397	0.533	0.461	0.854	0.803	0.68	0.996	0.759
SK-LU-1	0.875	0.912	1.08	0.975	0.993	0.732	0.762	0.845	0.642	0.606	0.496	0.483	0.545	0.462	0.469	0.458	0.467	0.432

Cell Line	relative viability ([1]; first compound 0.001 µM)	relative viability ([1]; first compound 0.003162 µM)	relative viability ([1]; first compound 0.01 µM)	relative viability ([1]; first compound 0.03162 µM)	relative viability ([1]; first compound 0.1 µM)	relative viability ([2]; first compound 0.002 µM)	relative viability ([2]; first compound 0.006325 µM)	relative viability ([2]; first compound 0.02 µM)	relative viability ([2]; first compound 0.06325 µM)	relative viability ([3]; first compound 0.002 µM)	relative viability ([3]; first compound 0.006325 µM)	relative viability ([3]; first compound 0.02 µM)	relative viability ([3]; first compound 0.06325 µM)	relative viability ([4]; first compound 0.001 µM)	relative viability ([4]; first compound 0.003162 µM)	relative viability ([4]; first compound 0.01 µM)	relative viability ([4]; first compound 0.03162 µM)	relative viability ([4]; first compound 0.1 µM)
LK-2	0.262	0.301	0.285	0.248	0.336	0.304	0.139	0.388	0.305	0.565	0.541	0.475	0.53	0.536	0.772	0.685	0.583	0.644
NCI-H596	0.511	0.475	0.498	0.476	0.459	0.554	0.468	0.676	0.551	–	0.387	0.378	0.431	0.728	0.636	0.732	0.658	0.717
UMC-11	0.676	0.787	0.864	0.771	0.818	0.392	0.35	0.377	0.343	0.68	0.863	0.824	0.787	0.365	0.349	0.464	0.315	0.471
NCI-H1355	0.972	1.03	0.92	1.09	0.935	0.58	0.615	0.718	0.635	0.403	0.484	0.462	0.514	0.659	0.737	0.761	0.748	0.679
NCI-H2228	0.288	0.311	0.355	0.316	0.317	0.451	0.82	0.585	0.51	0.338	0.278	0.384	0.388	0.696	0.729	1.02	0.707	0.807
NCI-H2170	0.252	0.242	0.279	0.293	0.277	0.725	0.752	0.863	0.842	0.296	0.357	0.349	0.329	0.567	0.681	0.656	0.584	0.54
NCI-H460	–	0.058	0.0614	–	0.073	0.706	0.727	0.802	0.688	0.355	0.351	0.413	0.451	–	0.377	0.573	0.336	0.429
NCI-H647	0.141	0.125	0.221	0.182	0.19	0.472	0.484	0.755	0.388	0.352	0.345	0.399	0.213	0.622	0.507	0.669	0.499	0.585
NCI-H358	0.164	0.148	0.223	–	0.155	0.641	0.643	0.86	0.106	0.254	0.349	0.332	0.249	0.548	0.6	0.585	–	0.67
HOP-62	0.3	0.248	0.315	0.325	0.323	0.516	0.595	0.727	0.577	0.79	0.63	0.818	0.749	–	0.322	0.54	0.619	0.449
HCC-44	0.572	0.665	0.655	0.65	0.606	1.01	1.11	1.12	1.1	0.565	0.469	0.674	0.726	0.934	0.982	1.03	0.981	0.952
NCI-H1993	0.55	0.566	0.567	0.67	0.59	0.739	0.714	0.667	0.523	0.697	0.733	0.798	0.789	0.968	1.24	1.07	1.14	1.07
A-427	0.781	0.96	0.84	0.884	0.954	0.812	0.849	0.838	0.629	0.592	0.736	0.802	0.705	0.736	0.719	0.687	0.586	0.711
COR-L23	0.193	0.189	0.208	0.194	0.211	0.434	0.501	0.274	0.125	0.692	0.636	0.408	0.175	0.34	0.356	0.319	0.274	0.247
NCI-H2023	0.209	0.215	0.295	–	0.244	0.738	0.817	0.792	0.171	0.237	0.23	0.25	0.112	0.418	0.422	0.513	–	0.417
NCI-H661	0.868	0.887	0.926	0.898	0.89	0.765	0.784	0.883	0.364	0.385	0.422	0.492	0.453	0.727	0.712	0.751	0.733	0.723
NCI-H322M	0.6	0.662	0.639	0.62	0.703	0.85	0.925	0.854	0.909	0.49	0.553	0.559	0.556	0.769	0.721	0.739	0.678	0.825
NCI-H838	0.244	0.231	0.268	0.257	0.236	0.705	0.759	0.68	0.377	0.386	0.521	0.536	0.299	0.641	0.683	0.77	0.678	0.361
